In assay [1] the target is aryl-alcohol oxidase (AAO) (Pleurotus eryngii, UniProt O94219, I527M/F528W). Kind of assay: conversion to FDCA by purified variant with catalase, HPLC. Format: biochemical. The text has this:
(§1) conversion to FDCA by purified variant with catalase, HPLC on aryl-alcohol oxidase (AAO) | production of FDCA from HMF by native AAO, and its F501H, F397Y, and I500M/F501 W variants

The target in assay [2] is aryl-alcohol oxidase (AAO) (Pleurotus eryngii, UniProt O94219, F424Y). The description is as above. Format: biochemical.
Description: as §1

The target of assay [3] is aryl-alcohol oxidase (AAO) (Pleurotus eryngii, UniProt O94219, F528H). The description is as above. Format: biochemical.
Description: as §1

Assay [4] deals with T1, aryl-alcohol oxidase (AAO) (Pleurotus eryngii, UniProt O94219).
T1 sequence (O94219 28-593): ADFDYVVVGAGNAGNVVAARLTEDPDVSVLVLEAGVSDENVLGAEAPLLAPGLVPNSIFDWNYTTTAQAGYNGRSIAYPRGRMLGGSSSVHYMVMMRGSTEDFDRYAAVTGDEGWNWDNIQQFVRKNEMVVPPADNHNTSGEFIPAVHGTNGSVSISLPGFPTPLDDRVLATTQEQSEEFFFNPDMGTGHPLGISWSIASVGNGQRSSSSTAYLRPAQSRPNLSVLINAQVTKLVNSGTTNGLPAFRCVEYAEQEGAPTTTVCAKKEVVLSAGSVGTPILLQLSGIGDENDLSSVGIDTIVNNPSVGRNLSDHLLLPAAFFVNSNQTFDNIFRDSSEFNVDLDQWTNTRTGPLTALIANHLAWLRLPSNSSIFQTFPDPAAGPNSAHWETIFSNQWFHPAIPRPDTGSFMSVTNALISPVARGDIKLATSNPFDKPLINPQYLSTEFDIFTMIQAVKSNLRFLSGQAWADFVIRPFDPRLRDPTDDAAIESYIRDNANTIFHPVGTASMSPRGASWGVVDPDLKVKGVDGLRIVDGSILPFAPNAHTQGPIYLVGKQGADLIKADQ
Kind of assay: HPLC and 1H-NMR of oxidation by purified AAO. The assay is classed as biochemical. On the set-up: mature AAO cDNA (GenBank AF064069) expressed in E. coli.

The target in assay [5] is T1, aryl-alcohol oxidase (AAO). Kind of assay: biochemical.
Assay [6] has as its target T1, aryl-alcohol oxidase (AAO). Description: turnover at saturating aldehyde, spectrophotometric acid formation. Format: biochemical. More on the design: mature AAO cDNA (GenBank AF064069) expressed in E. coli. As to the method:
turnover at saturating aldehyde, spectrophotometric acid formation on aryl-alcohol oxidase (AAO) | Turnovers for aldehyde oxidation were calculated at saturating concentration of p-anisaldehyde

Consider `O=Cc1ccc(CO)o1` [HMF], for which the “% conversion” value is 52.8 % conversion in assay [1], 75.7 % conversion in assay [2] and 97.9 % conversion in assay [3]. In addition, in assay [4], the “HPLC and 1H-NMR of oxidation by purified AAO” value amounted to 2.54 h⁻¹.
For orientation: IC50 means the concentration needed to halve the response being measured. Lower therefore signals greater potency. The molecule `OO` [H2O2] showed an IC50 in assay [5] of around 158 µM.
`COc1ccc(C=O)cc1` [p-anisaldehyde]: the “p-Anisaldehyde / kcat” value in assay [6] turned out to be 0.122 s⁻¹.

Values taken from article PMC6737615, “Complete oxidation of hydroxymethylfurfural to furandicarboxylic acid by aryl-alcohol oxidase” (Biotechnology for Biofuels, 2019).
